In US9201014B2, “Development of photostable near-IR cyanine dyes for in vivo imaging” (National University of Singapore, priority 2010, dated 2015):

Tests used:
Format in all cases: physicochemical
[1] = Absorbance and fluorescence maximum wavelengths and quantum yields of the CyNA library
In short: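 Absorption and emission maxima and quantum yields of the 80-member amine-derivatized CyNA library were measured on a plate spectrophotometer.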

[2] = Primary screening of photostability of the CyNA library (time-course fluorescence, 8 h); design: F/Fo, fluorescent intensity at 8 hours vs 0 hours: unit: %; details: 10 μM in HEPES 100 mM pH 7.4, 2% DMSO
In short: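 CyNA dyes at 10 μM in 100 mM HEPES pH 7.4 with 2% DMSO irradiated by xenon lamp for 8 h. Fluorescence (ex/em 790-820 nm) read every 10 min; stability given as F8h/Fo.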

[3] = Time-course fluorescence measurements (photobleaching rate constants) of CyN and CyNA derivatives in HEPES buffer
Procedure: Values were fitted to a non-linear regression one-phase exponential decay (GraphPad Prism 5.0). Detailed statistics for the one-phase decay analysis of the CyN compounds and 1 follow: Photodecomposition rate constants were determined by plotting -ln(F/F0) vs time, and calculated using a pseudo-first order rate equation. See […]., et al., Photochem. Photobiol. 2000, 72, 392-398.

[4] = Characterization of the CyNAMLA library (absorbance maximum wavelengths); details: absorbance maximum wavelength of CyNAMLA library compounds
Procedure: The amine group of 21 was protected using di-tert-butyl dicarbonate then derivatized with 80 different primary amines (for structures, see FIGS. 14A-14D). After acetylation of the newly-introduced amine, the compounds were treated with a solution of TFA-DCM (1:9) to remove the tert-butylcarbamate protecting group. The deprotected amine was then coupled to lipoic acid to yield CyNAMLA derivatives with an average purity of 90% (for HPLC-determined purities, see Table 6).

[5] = Primary screen of SERS intensities of CyNAMLA-functionalized AuNPs (compact Raman scanner); details: for Raman intensity: SERS spectra of CyNAMLA-functionalized AuNPs, excitation at 785 nm, laser power 60 mW
Procedure: FIG. 15 is a graph of the comparative surface-enhanced Raman spectroscopy (SERS) intensities of members of the CyNAMLA library measured with an excitation wavelength of 785 nm and a laser power of 60 mW in a compact Raman scanner.
The CyNAMLA compounds were adsorbed onto AuNPs having a diameter of approximately 60 nm, and the SERS properties of the resulting CyNAMLA-functionalized AuNPs were evaluated using a compact Raman scanner. Among metal nanoparticles, AuNPs are particularly suitable for in vivo applications due to their low toxicity, adaptability to bioconjugation, and reproducible signal intensity and quantification.

Row | Compound | λabs (max) [4] [nm] | Raman intensity [5] | also measured
1 | CCCN1/C(=C/C=C2\CCCC(/C=C/C3=[N+](CCC)c4ccccc4C3(C)C)=C2N(CCCOC)C(C)=O)C(C)(C)c2ccccc21.[I-] [CyNA-165] |  |  | λabs, absorbance maximum wavelength ([1]; CyNA library): 806 nm; λem, fluorescence maximum wavelength ([1]; CyNA library): 821 nm; φ, quantum yield ([1]; in DMSO, Cardiogreen as standard): 0.09; F/Fo, fluorescent intensity at 8 hours vs 0 hours [2]: 94; max RFU, maximum relative fluorescence units [2]: 775.1; k, rate of photobleaching ([3]; 10 μM in 10 mM HEPES pH 7.4, 1% DMSO, pseudo-first order): 4.53e-06 s⁻¹; kCyN/kCyNA ([3]; ratio of photobleaching rate constants, aqueous media): 8
2 | CCCN1/C(=C/C=C2\CCCC(/C=C/C3=[N+](CCCNC(=O)CCCCC4CCSS4)c4ccccc4C3(C)C)=C2N(Cc2cc(OC)cc(OC)c2)C(C)=O)C(C)(C)c2ccccc21.O=C([O-])C(F)(F)F (stereo not drawn) [CyNAMLA-262] | 805 | 27810 | SERS intensity compared to DTTC, primary screen ([5]; on AuNPs, 785 nm, 60 mW): exceeded the signal of DTTC
3 | CCCC(C)N(C(C)=O)C1=C(/C=C/C2=[N+](CCCNC(=O)CCCCC3CCSS3)c3ccccc3C2(C)C)CCC/C1=C\C=C1\N(CCC)c2ccccc2C1(C)C.O=C([O-])C(F)(F)F (stereo not drawn) [CyNAMLA-185] | 805 | 4603 | 
4 | CCCCCCCCCCN(C(C)=O)C1=C(/C=C/C2=[N+](CCCNC(=O)CCCCC3CCSS3)c3ccccc3C2(C)C)CCC/C1=C\C=C1\N(CCC)c2ccccc2C1(C)C.O=C([O-])C(F)(F)F (stereo not drawn) [CyNAMLA-407] | 806 | 3000 | 
5 | CCCN1/C(=C/C=C2\CCCC(/C=C/C3=[N+](CCCNC(=O)CCCCC4CCSS4)c4ccccc4C3(C)C)=C2N(Cc2c(OC)cc(OC)cc2OC)C(C)=O)C(C)(C)c2ccccc21.O=C([O-])C(F)(F)F (stereo not drawn) [CyNAMLA-336] | 805 | 2548 | 
6 | CCCN1/C(=C/C=C2\CCCC(/C=C/C3=[N+](CCCNC(=O)CCCCC4CCSS4)c4ccccc4C3(C)C)=C2N(CCc2cccc(OC)c2OC)C(C)=O)C(C)(C)c2ccccc21.O=C([O-])C(F)(F)F (stereo not drawn) [CyNAMLA-184] | 803 | 24133 | 
7 | CCCN1/C(=C/C=C2\CCCC(/C=C/C3=[N+](CCCNC(=O)CCCCC4CCSS4)c4ccccc4C3(C)C)=C2N(CC(C)CC)C(C)=O)C(C)(C)c2ccccc21.O=C([O-])C(F)(F)F (stereo not drawn) [CyNAMLA-574] | 804 | 1763 | 
8 | CCCN1/C(=C/C=C2\CCCC(/C=C/C3=[N+](CCCNC(=O)CCCCC4CCSS4)c4ccccc4C3(C)C)=C2N(Cc2cccc(OC)c2)C(C)=O)C(C)(C)c2ccccc21.O=C([O-])C(F)(F)F (stereo not drawn) [CyNAMLA-387] | 804 | 3910 | 
9 | CCCN1/C(=C/C=C2\CCCC(/C=C/C3=[N+](CCCNC(=O)CCCCC4CCSS4)c4ccccc4C3(C)C)=C2N(Cc2ccc3c(c2)OCO3)C(C)=O)C(C)(C)c2ccccc21.O=C([O-])C(F)(F)F (stereo not drawn) [CyNAMLA-49] | 806 | 2271 | 
10 | CCCN1/C(=C/C=C2\CCCC(/C=C/C3=[N+](CCCNC(=O)CCCCC4CCSS4)c4ccccc4C3(C)C)=C2N(C(C)=O)C2CCCCC2)C(C)(C)c2ccccc21.O=C([O-])C(F)(F)F (stereo not drawn) [CyNAMLA-164] | 803 | 4777 | 
11 | CCCN1/C(=C/C=C2\CCCC(/C=C/C3=[N+](CCCNC(=O)CCCCC4CCSS4)c4ccccc4C3(C)C)=C2N(Cc2ccc(Cl)c(Cl)c2)C(C)=O)C(C)(C)c2ccccc21.O=C([O-])C(F)(F)F (stereo not drawn) [CyNAMLA-565] | 805 | 14019 | 
12 | CCCN1/C(=C/C=C2\CCCC(/C=C/C3=[N+](CCCNC(=O)CCCCC4CCSS4)c4ccccc4C3(C)C)=C2N(Cc2ccc(OC)cc2OC)C(C)=O)C(C)(C)c2ccccc21.O=C([O-])C(F)(F)F (stereo not drawn) [CyNAMLA-181] | 804 | 2109 | 
13 | CCCN1/C(=C/C=C2\CCCC(/C=C/C3=[N+](CCCNC(=O)CCCCC4CCSS4)c4ccccc4C3(C)C)=C2N(C(C)=O)C2CCN(Cc3ccccc3)CC2)C(C)(C)c2ccccc21.O=C([O-])C(F)(F)F (stereo not drawn) [CyNAMLA-107] | 805 | 2397 | 
14 | CCCN1/C(=C/C=C2\CCCC(/C=C/C3=[N+](CCCNC(=O)CCCCC4CCSS4)c4ccccc4C3(C)C)=C2N(Cc2cc(OC)c(OC)c(OC)c2)C(C)=O)C(C)(C)c2ccccc21.O=C([O-])C(F)(F)F (stereo not drawn) [CyNAMLA-356] | 806 | 2333 | 
15 | CCCN1/C(=C/C=C2\CCCC(/C=C/C3=[N+](CCCNC(=O)CCCCC4CCSS4)c4ccccc4C3(C)C)=C2N(CCc2cccc(F)c2)C(C)=O)C(C)(C)c2ccccc21.O=C([O-])C(F)(F)F (stereo not drawn) [CyNAMLA-405] | 805 | 12149 | 
16 | CCCN1/C(=C/C=C2\CCCC(/C=C/C3=[N+](CCCNC(=O)CCCCC4CCSS4)c4ccccc4C3(C)C)=C2N(Cc2ccc(F)cc2)C(C)=O)C(C)(C)c2ccccc21.O=C([O-])C(F)(F)F (stereo not drawn) [CyNAMLA-218] | 804 | 1922 | 
17 | CCCN1/C(=C/C=C2\CCCC(/C=C/C3=[N+](CCCNC(=O)CCCCC4CCSS4)c4ccccc4C3(C)C)=C2N(Cc2ccccn2)C(C)=O)C(C)(C)c2ccccc21.O=C([O-])C(F)(F)F (stereo not drawn) [CyNAMLA-401] | 804 | 2920 | 
18 | CCCN1/C(=C/C=C2\CCCC(/C=C/C3=[N+](CCCNC(=O)CCCCC4CCSS4)c4ccccc4C3(C)C)=C2N(C(C)=O)C2CCCC2)C(C)(C)c2ccccc21.O=C([O-])C(F)(F)F (stereo not drawn) [CyNAMLA-180] | 804 | 8236 | 
19 | CCCN1/C(=C/C=C2\CCCC(/C=C/C3=[N+](CCCNC(=O)CCCCC4CCSS4)c4ccccc4C3(C)C)=C2N(Cc2ccc(OC)c(OC)c2)C(C)=O)C(C)(C)c2ccccc21.O=C([O-])C(F)(F)F (stereo not drawn) [CyNAMLA-319] | 805 | 2850 | 
20 | CCCN1/C(=C/C=C2\CCCC(/C=C/C3=[N+](CCCNC(=O)CCCCC4CCSS4)c4ccccc4C3(C)C)=C2N(CCc2ccc(OC)c(OC)c2)C(C)=O)C(C)(C)c2ccccc21.O=C([O-])C(F)(F)F (stereo not drawn) [CyNAMLA-266] | 806 | 3013 | 
21 | CCCN1/C(=C/C=C2\CCCC(/C=C/C3=[N+](CCCNC(=O)CCCCC4CCSS4)c4ccccc4C3(C)C)=C2N(CCN2CCCCC2)C(C)=O)C(C)(C)c2ccccc21.O=C([O-])C(F)(F)F (stereo not drawn) [CyNAMLA-272] | 805 | 1986 | 
22 | CCCCC(CC)CN(C(C)=O)C1=C(/C=C/C2=[N+](CCCNC(=O)CCCCC3CCSS3)c3ccccc3C2(C)C)CCC/C1=C\C=C1\N(CCC)c2ccccc2C1(C)C.O=C([O-])C(F)(F)F (stereo not drawn) [CyNAMLA-230] | 804 | 4341 | 
23 | CCCN1/C(=C/C=C2\CCCC(/C=C/C3=[N+](CCCNC(=O)CCCCC4CCSS4)c4ccccc4C3(C)C)=C2N(Cc2cccc(OC)c2OC)C(C)=O)C(C)(C)c2ccccc21.O=C([O-])C(F)(F)F (stereo not drawn) [CyNAMLA-124] | 804 | 2201 | 
24 | CCCN1/C(=C/C=C2\CCCC(/C=C/C3=[N+](CCCNC(=O)CCCCC4CCSS4)c4ccccc4C3(C)C)=C2N(CCc2ccccc2F)C(C)=O)C(C)(C)c2ccccc21.O=C([O-])C(F)(F)F (stereo not drawn) [CyNAMLA-477] | 804 | 9679 | 
25 | CCCN1/C(=C/C=C2\CCCC(/C=C/C3=[N+](CCCNC(=O)CCCCC4CCSS4)c4ccccc4C3(C)C)=C2N(C(C)=O)C(C)CCc2ccccc2)C(C)(C)c2ccccc21.O=C([O-])C(F)(F)F (stereo not drawn) [CyNAMLA-275] | 804 | 1408 | 
26 | CCCN1/C(=C/C=C2\CCCC(/C=C/C3=[N+](CCCNC(=O)CCCCC4CCSS4)c4ccccc4C3(C)C)=C2N(CC2CCCCC2)C(C)=O)C(C)(C)c2ccccc21.O=C([O-])C(F)(F)F (stereo not drawn) [CyNAMLA-382] | 804 | 7947 | 
27 | CCCN1/C(=C/C=C2\CCCC(/C=C/C3=[N+](CCCNC(=O)CCCCC4CCSS4)c4ccccc4C3(C)C)=C2N(Cc2ccccc2C)C(C)=O)C(C)(C)c2ccccc21.O=C([O-])C(F)(F)F (stereo not drawn) [CyNAMLA-101] | 803 | 2102 | 
